The values that follow come from the SangsterLogP compilation.

Molecules are shown by their SMILES.

The term logP denotes a log measure of how a compound divides between an organic and an aqueous phase.

`O=C(NC(=O)c1c(F)cccc1F)Nc1ccc(Cl)c(Oc2ncc(C(F)(F)F)cc2Cl)c1` yielded a logP of 5.1. Compound `O=C(NC(=O)c1c(F)cccc1F)Nc1ccc(OC(F)(F)C(F)OC(F)(F)F)c(Cl)c1` (centres undefined) had a logP of 5.27. This logP and that of the compound before are within 0.2 log units of each other.

Take `COP(=O)(OC)SCn1c(=O)oc2cc(Cl)cnc21`: the logP is 1.05.

`CCOP(=O)(SC(C)CC)N1CCSC1=O` (centres undefined) had a logP of 1.68. Turning to `CN(C)S(=O)(=O)N(SC(F)(Cl)Cl)c1ccccc1`, the logP amounted to 3.7. For `Clc1ccc(CS/C(Cn2cncn2)=N\c2ccc(Cl)cc2Cl)cc1`, the logP was 4.94. The compound `Cc1cccc(C)c1N(C(=O)CCl)C1CCOC1=O` (centres undefined) had a logP of 1.39. In the case of `Fc1cccc(F)c1-c1nnc(-c2ccccc2Cl)nn1` it was 3.3. Turning to `CCc1cccc(C)c1N(COC(C)C)C(=O)CCl`, the logP came out at 3.5.
